In EPA's ToxRefDB 2:

What was measured:
[1] = test system: rabbit; settings: Prenatal developmental toxicity study, new zealand white, Oral, Gavage/Intubation, dose end: 19 GD
[2] = test system: mouse; settings: Prenatal developmental toxicity study, cd1, Oral, Gavage/Intubation, dose end: 15 GD
[3] = test system: mouse; settings: Combined chronic toxicity/carcinogenicity, cd1, Oral, Feed, dose end: 24 month
[4] = test system: rabbit; settings: Prenatal developmental toxicity study, new zealand white, Dermal, Topical, dose end: 19 GD
[5] = test system: rabbit; settings: Prenatal developmental toxicity study, other, Oral, Gavage/Intubation, dose end: 18 GD
[6] = test system: rabbit; settings: Prenatal developmental toxicity study, new zealand white, Oral, Gavage/Intubation, dose end: 18 GD
[7] = test system: rat; settings: Multigenerational reproductive toxicity study, other, Oral, Feed, dose end: 2 generation
[8] = test system: rat; settings: Multigenerational reproductive toxicity study, wistar, Oral, Feed, dose end: 4 generation
[9] = group: developmental, developmental / developmental malformation / bone / [other] + developmental / developmental malformation / bone / absent + developmental / …
[10] = group: maternal, reproductive / reproductive performance / postimplantation loss / postimplantation loss + systemic / in life observation / body weight / …
[11] = group: developmental, developmental / developmental malformation / bone / exencephaly + developmental / developmental malformation / bone / fused + developmental…
[12] = group: cholinesterase, cholinesterase / cholinesterase / cholinesterase / brain cholinesterase (che)
[13] = group: cholinesterase, cholinesterase / cholinesterase / cholinesterase / brain cholinesterase (che) + cholinesterase / cholinesterase / cholinesterase / plasma …
[14] = group: systemic, systemic / pathology microscopic / liver / adenoma + systemic / pathology gross / liver / mass
[15] = group: systemic, systemic / pathology microscopic / liver / adenoma + systemic / pathology microscopic / liver / adenoma/carcinoma combined + systemic / …
[16] = group: developmental, developmental / developmental malformation / innominate artery / [other]
[17] = group: developmental, systemic / in life observation / body weight / fetal weight
[18] = group: maternal, systemic / in life observation / body weight / body weight + systemic / in life observation / body weight / body weight gain + reproductive…
[19] = group: maternal, systemic / in life observation / body weight / body weight + systemic / in life observation / body weight / body weight gain + systemic / in…
[20] = group: developmental, developmental / developmental malformation / bone / [other] + developmental / developmental malformation / bone / curled + developmental / …
[21] = group: maternal, systemic / in life observation / body weight / body weight gain
[22] = group: maternal, systemic / in life observation / body weight / body weight gain + reproductive / reproductive performance / aborted / aborted + reproductive…
[23] = group: offspring, systemic / pathology microscopic / ureter / hyperplasia
[24] = group: parental, systemic / in life observation / clinical signs / motor activity
[25] = group: offspring, developmental / developmental malformation / bone / absent + developmental / developmental malformation / bone / incomplete ossification + …
[26] = group: offspring, systemic / in life observation / body weight / offspring (pup) weight gain
[27] = group: parental, systemic / in life observation / body weight / body weight gain
[28] = group: reproductive, reproductive / reproductive performance / fertility / fertility + reproductive / reproductive performance / pregnancy / pregnancy
[29] = group: reproductive, reproductive / reproductive performance / fertility / fertility + reproductive / reproductive performance / pregnancy / pregnancy + …

In the case of `CCOCCOCC` [Ethylene glycol diethyl ether], the LEL [1, 9] is reported as 100 mg/kg/day, the LOAEL [1, 9] is reported as > 100 mg/kg/day and the NEL [1, 9] is reported as 50 mg/kg/day. For the same compound, the NOAEL [1, 9] was ≥ 100 mg/kg/day, the LEL [1, 10] was 100 mg/kg/day and the LOAEL [1, 10] was > 100 mg/kg/day. For the same compound, the NEL [1, 10] was 50 mg/kg/day, the NOAEL [1, 10] was ≥ 100 mg/kg/day and the LEL [2, 11] was 500 mg/kg/day. For the same compound, the LOAEL [2, 11] was > 1000 mg/kg/day, the NEL [2, 11] was 150 mg/kg/day and the NOAEL [2, 11] was ≥ 1000 mg/kg/day. For the same compound, the LEL [2, 10] was 1000 mg/kg/day, the LOAEL [2, 10] was > 1000 mg/kg/day and the NEL [2, 10] was 500 mg/kg/day. The NOAEL [2, 10] was ≥ 1000 mg/kg/day.
`COc1nn(CSP(=S)(OC)OC)c(=O)s1` [Methidathion] was tested, and the LEL [3, 12] was 1.6 mg/kg/day, the LOAEL [3, 12] was 7.5 mg/kg/day and the NEL [3, 13] was 0.46 mg/kg/day. The NOAEL [3, 13] was 1.6 mg/kg/day, the LEL [3, 14] was 0.46 mg/kg/day and the NEL [3, 14] was < 0.46 mg/kg/day. It also gave an LOAEL [3, 15] of 7.5 mg/kg/day and an NOAEL [3, 15] of 1.6 mg/kg/day.
In the case of `Nc1ncn[nH]1` [Amitrole], the LEL [4, 16] is reported as 1000 mg/kg/day, the NEL [4, 16] is reported as < 1000 mg/kg/day and the LOAEL [4, 17] is reported as 2000 mg/kg/day. For the same compound, the NOAEL ([4]; group: developmental, systemic / in life observation / body weight / fetal weight + developmental / developmental malformation / bone / absent + developmental / …) was 1500 mg/kg/day, the LOAEL ([4]; group: maternal, systemic / in life observation / body weight / body weight + systemic / in life observation / body weight / body weight gain) was 2000 mg/kg/day and the LEL [4, 18] was 2000 mg/kg/day. It also gave an NEL [4, 18] of 1500 mg/kg/day, an NOAEL [4, 18] of 1500 mg/kg/day and an LEL [5, 17] of 80 mg/kg/day. The LOAEL [5, 17] was 80 mg/kg/day, the NEL [5, 17] was 20 mg/kg/day and the NOAEL [5, 17] was 20 mg/kg/day. For the same compound, the LEL [5, 19] was 80 mg/kg/day, the LOAEL [5, 19] was 80 mg/kg/day and the NEL [5, 19] was 20 mg/kg/day. For the same compound, the NOAEL [5, 19] was 20 mg/kg/day, the LEL [6, 20] was 40 mg/kg/day and the LOAEL [6, 20] was 40 mg/kg/day. It also gave an NEL [6, 20] of 4 mg/kg/day, an NOAEL [6, 20] of 4 mg/kg/day and an LEL [6, 21] of 40 mg/kg/day. For the same compound, the LOAEL [6, 21] was 40 mg/kg/day, the NEL [6, 22] was 4 mg/kg/day and the NOAEL [6, 22] was 4 mg/kg/day.
In the case of `COc1cc(OC)nc(NC(=O)NS(=O)(=O)Nc2ccccc2C(=O)N(C)C)n1` [Orthosulfamuron], the LEL [7, 23] is reported as 765 mg/kg/day, the LOAEL [7, 23] is reported as > 765 mg/kg/day and the NEL [7, 23] is reported as 205 mg/kg/day. The NOAEL [7, 23] was ≥ 765 mg/kg/day, the LEL [7, 24] was 635 mg/kg/day and the LOAEL [7, 24] was 635 mg/kg/day. The NEL [7, 24] was 145 mg/kg/day and the NOAEL [7, 24] was 145 mg/kg/day.
In the case of `CC(O)CCO` (stereo not drawn) [1,3-Butanediol], the LOAEL [8, 25] is reported as > 12000 mg/kg/day, the NOAEL [8, 25] is reported as ≥ 12000 mg/kg/day and the LEL [8, 26] is reported as 2500 mg/kg/day. The NEL [8, 26] was < 2500 mg/kg/day, the LEL [8, 27] was 2500 mg/kg/day and the LOAEL [8, 27] was > 12000 mg/kg/day. For the same compound, the NEL [8, 27] was < 2500 mg/kg/day, the NOAEL [8, 27] was ≥ 12000 mg/kg/day and the LEL [8, 28] was 2500 mg/kg/day. The NEL [8, 28] was < 2500 mg/kg/day, the LOAEL [8, 29] was > 12000 mg/kg/day and the NOAEL [8, 29] was ≥ 12000 mg/kg/day.
